Data from paper PMC7112168 (PLoS Pathogens, 2020).

Molecular target: T1, PelD^Bc (PelD^Bc150-407; also PelD^Bc170-403)
T1 construct: gene BCE_5583
Conditions: 20 mM HEPES pH 8.0, 150 mM NaCl, 5% glycerol, 1 mM DTT; 25 μM protein, 450 μM c-di-GMP in syringe; single-site model; proposed I-site (RxxD)

`Nc1nc2c(ncn2[C@@H]2O[C@@H]3COP(=O)(O)O[C@H]4[C@@H](O)[C@H](n5cnc6c(=O)[nH]c(N)nc65)O[C@@H]4COP(=O)(O)O[C@H]3[C@H]2O)c(=O)[nH]1` [c-di-GMP] showed a Kd of 0.103 ± 0.014 µM.
